According to the supplement of paper PMC10307832:

Experiments:
Assay in all cases: relative viability (nuclei count vs DMSO), 5 days (fraction); higher = more cells survive
[1] = compound: CN(C)CC1=CC(=CC=C1)N=C(C2=CC=CC=C2)C3=C(NC4=C3C=CC(=C4)C(=O)N(C)C)O + COc1cccc2cc(-c3nc([C@H]4CC[C@H](C(=O)O)CC4)n4ncnc(N)c34)[nH]c12 [OSI-027] (partner 0.5 µM)
Method in brief: (§1)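 Lung cancer cell lines, seeded in 1536-well plates, were treated the following day by pin tool with a single drug or with five library-drug doses (not always all listed) in √10 steps on top of a fixed anchor-drug dose. Cells were fixed and nuclei stained in one step after 5 days, and nuclei were counted. Relative viability is the nuclei count for treated wells divided by that for vehicle wells, reported as medians of duplicate plates.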

[2] = compound: CN(C)CC1=CC(=CC=C1)N=C(C2=CC=CC=C2)C3=C(NC4=C3C=CC(=C4)C(=O)N(C)C)O + CC(=O)Nc1cccc(-n2c(=O)n(C3CC3)c(=O)c3c(Nc4ccc(I)cc4F)n(C)c(=O)c(C)c32)c1 [Trametinib] (partner 0.02 µM)
Method in brief: as §1

[3] = compound: CN(C)CC1=CC(=CC=C1)N=C(C2=CC=CC=C2)C3=C(NC4=C3C=CC(=C4)C(=O)N(C)C)O + N=C(N)NC(=N)NCCc1ccccc1 [Phenformin] (partner 250 µM)
Method in brief: as §1

[4] = compound: CN(C)CC1=CC(=CC=C1)N=C(C2=CC=CC=C2)C3=C(NC4=C3C=CC(=C4)C(=O)N(C)C)O + C[C@@H](Oc1cc(-c2cnn(C3CCNCC3)c2)cnc1N)c1c(Cl)ccc(F)c1Cl [Crizotinib] (partner 1 µM)
Method in brief: as §1

NCI-H2009 was tested, and the relative viability ([1]; first compound 0.08 µM) was 0.507, the relative viability ([1]; first compound 0.253 µM) was 0.693 and the relative viability ([1]; first compound 0.8 µM) was 0.764. For the same cell line, the relative viability ([1]; first compound 2.53 µM) was 0.616, the relative viability ([1]; first compound 8 µM) was 0.467 and the relative viability ([2]; first compound 0.08 µM) was 0.276. It also gave a relative viability ([2]; first compound 0.253 µM) of 0.314, a relative viability ([2]; first compound 0.8 µM) of 0.271 and a relative viability ([2]; first compound 2.53 µM) of 0.297. The relative viability ([2]; first compound 8 µM) was 0.244, the relative viability ([3]; first compound 0.08 µM) was 0.508 and the relative viability ([3]; first compound 0.253 µM) was 0.484. It also gave a relative viability ([3]; first compound 0.8 µM) of 0.49, a relative viability ([3]; first compound 2.53 µM) of 0.416 and a relative viability ([3]; first compound 8 µM) of 0.372. For the same cell line, the relative viability ([4]; first compound 0.08 µM) was 1.11, the relative viability ([4]; first compound 0.253 µM) was 1.03 and the relative viability ([4]; first compound 0.8 µM) was 1.09. The relative viability ([4]; first compound 2.53 µM) was 1.01 and the relative viability ([4]; first compound 8 µM) was 1.
NCI-H2023 was tested, and the relative viability ([1]; first compound 0.08 µM) was 0.321, the relative viability ([1]; first compound 0.253 µM) was 0.468 and the relative viability ([1]; first compound 0.8 µM) was 0.488. For the same cell line, the relative viability ([1]; first compound 2.53 µM) was 0.318, the relative viability ([1]; first compound 8 µM) was 0.335 and the relative viability ([2]; first compound 0.08 µM) was 0.639. For the same cell line, the relative viability ([2]; first compound 0.253 µM) was 0.557, the relative viability ([2]; first compound 0.8 µM) was 0.556 and the relative viability ([2]; first compound 2.53 µM) was 0.545. For the same cell line, the relative viability ([2]; first compound 8 µM) was 0.471, the relative viability ([3]; first compound 0.08 µM) was 0.377 and the relative viability ([3]; first compound 0.253 µM) was 0.392. It also gave a relative viability ([3]; first compound 0.8 µM) of 0.405, a relative viability ([3]; first compound 2.53 µM) of 0.338 and a relative viability ([3]; first compound 8 µM) of 0.342. For the same cell line, the relative viability ([4]; first compound 0.08 µM) was 0.797, the relative viability ([4]; first compound 0.253 µM) was 0.698 and the relative viability ([4]; first compound 0.8 µM) was 0.67. For the same cell line, the relative viability ([4]; first compound 2.53 µM) was 0.563 and the relative viability ([4]; first compound 8 µM) was 0.498.
With NCI-H2085 the relative viability ([1]; first compound 0.08 µM) was 0.856, the relative viability ([1]; first compound 0.253 µM) was 1.15 and the relative viability ([1]; first compound 0.8 µM) was 0.582. For the same cell line, the relative viability ([1]; first compound 2.53 µM) was 0.955, the relative viability ([1]; first compound 8 µM) was 0.768 and the relative viability ([2]; first compound 0.08 µM) was 0.509. It also gave a relative viability ([2]; first compound 0.253 µM) of 0.568, a relative viability ([2]; first compound 0.8 µM) of 0.599 and a relative viability ([2]; first compound 2.53 µM) of 0.643. It also gave a relative viability ([2]; first compound 8 µM) of 0.545, a relative viability ([3]; first compound 0.08 µM) of 0.747 and a relative viability ([3]; first compound 0.253 µM) of 0.711. For the same cell line, the relative viability ([3]; first compound 0.8 µM) was 0.635, the relative viability ([3]; first compound 2.53 µM) was 0.784 and the relative viability ([3]; first compound 8 µM) was 0.638. For the same cell line, the relative viability ([4]; first compound 0.08 µM) was 0.849, the relative viability ([4]; first compound 0.253 µM) was 0.903 and the relative viability ([4]; first compound 0.8 µM) was 0.702. It also gave a relative viability ([4]; first compound 2.53 µM) of 0.947 and a relative viability ([4]; first compound 8 µM) of 1.03.
Work on NCI-H2087 yielded a relative viability ([1]; first compound 0.08 µM) of 0.552, a relative viability ([1]; first compound 0.253 µM) of 0.668 and a relative viability ([1]; first compound 0.8 µM) of 0.569. For the same cell line, the relative viability ([1]; first compound 2.53 µM) was 0.542, the relative viability ([1]; first compound 8 µM) was 0.367 and the relative viability ([2]; first compound 0.08 µM) was 0.21. The relative viability ([2]; first compound 0.253 µM) was 0.247, the relative viability ([2]; first compound 0.8 µM) was 0.201 and the relative viability ([2]; first compound 2.53 µM) was 0.196. For the same cell line, the relative viability ([2]; first compound 8 µM) was 0.166, the relative viability ([3]; first compound 0.08 µM) was 0.478 and the relative viability ([3]; first compound 0.253 µM) was 0.522. The relative viability ([3]; first compound 0.8 µM) was 0.403, the relative viability ([3]; first compound 2.53 µM) was 0.48 and the relative viability ([3]; first compound 8 µM) was 0.31. For the same cell line, the relative viability ([4]; first compound 0.08 µM) was 0.817, the relative viability ([4]; first compound 0.253 µM) was 0.838 and the relative viability ([4]; first compound 0.8 µM) was 0.828. For the same cell line, the relative viability ([4]; first compound 2.53 µM) was 0.72 and the relative viability ([4]; first compound 8 µM) was 0.872.
For NCI-H2126, the relative viability ([1]; first compound 0.08 µM) was 0.612, the relative viability ([1]; first compound 0.253 µM) was 0.745 and the relative viability ([1]; first compound 0.8 µM) was 0.812. It also gave a relative viability ([1]; first compound 2.53 µM) of 0.8, a relative viability ([1]; first compound 8 µM) of 0.676 and a relative viability ([2]; first compound 0.08 µM) of 0.6. For the same cell line, the relative viability ([2]; first compound 0.253 µM) was 0.59, the relative viability ([2]; first compound 0.8 µM) was 0.484 and the relative viability ([2]; first compound 2.53 µM) was 0.602. It also gave a relative viability ([2]; first compound 8 µM) of 0.55, a relative viability ([3]; first compound 0.08 µM) of 0.522 and a relative viability ([3]; first compound 0.253 µM) of 0.553. For the same cell line, the relative viability ([3]; first compound 0.8 µM) was 0.542, the relative viability ([3]; first compound 2.53 µM) was 0.511 and the relative viability ([3]; first compound 8 µM) was 0.557. The relative viability ([4]; first compound 0.08 µM) was 1.04, the relative viability ([4]; first compound 0.253 µM) was 1.01 and the relative viability ([4]; first compound 0.8 µM) was 1.07. The relative viability ([4]; first compound 2.53 µM) was 1.01 and the relative viability ([4]; first compound 8 µM) was 1.01.
Work on NCI-H2170 yielded a relative viability ([1]; first compound 0.08 µM) of 0.739, a relative viability ([1]; first compound 0.253 µM) of 0.75 and a relative viability ([1]; first compound 0.8 µM) of 0.465. For the same cell line, the relative viability ([1]; first compound 2.53 µM) was 0.69, the relative viability ([1]; first compound 8 µM) was 0.676 and the relative viability ([2]; first compound 0.08 µM) was 0.899. It also gave a relative viability ([2]; first compound 0.253 µM) of 0.892, a relative viability ([2]; first compound 0.8 µM) of 0.758 and a relative viability ([2]; first compound 2.53 µM) of 0.917. For the same cell line, the relative viability ([2]; first compound 8 µM) was 0.809, the relative viability ([3]; first compound 0.08 µM) was 0.404 and the relative viability ([3]; first compound 0.253 µM) was 0.4. It also gave a relative viability ([3]; first compound 0.8 µM) of 0.408, a relative viability ([3]; first compound 2.53 µM) of 0.381 and a relative viability ([3]; first compound 8 µM) of 0.384. For the same cell line, the relative viability ([4]; first compound 0.08 µM) was 1.2, the relative viability ([4]; first compound 0.253 µM) was 1.15 and the relative viability ([4]; first compound 0.8 µM) was 0.934. For the same cell line, the relative viability ([4]; first compound 2.53 µM) was 1.11 and the relative viability ([4]; first compound 8 µM) was 0.922.
Work on NCI-H2228 yielded a relative viability ([1]; first compound 0.08 µM) of 0.638, a relative viability ([1]; first compound 0.253 µM) of 0.736 and a relative viability ([1]; first compound 0.8 µM) of 0.615. For the same cell line, the relative viability ([1]; first compound 2.53 µM) was 0.492, the relative viability ([1]; first compound 8 µM) was 0.419 and the relative viability ([2]; first compound 0.08 µM) was 0.625. For the same cell line, the relative viability ([2]; first compound 0.253 µM) was 0.417, the relative viability ([2]; first compound 0.8 µM) was 0.376 and the relative viability ([2]; first compound 2.53 µM) was 0.457. For the same cell line, the relative viability ([2]; first compound 8 µM) was 0.421, the relative viability ([3]; first compound 0.08 µM) was 0.403 and the relative viability ([3]; first compound 0.253 µM) was 0.308. For the same cell line, the relative viability ([3]; first compound 0.8 µM) was 0.312, the relative viability ([3]; first compound 2.53 µM) was 0.254 and the relative viability ([3]; first compound 8 µM) was 0.357. It also gave a relative viability ([4]; first compound 0.08 µM) of 0.406, a relative viability ([4]; first compound 0.253 µM) of 0.505 and a relative viability ([4]; first compound 0.8 µM) of 0.442. It also gave a relative viability ([4]; first compound 2.53 µM) of 0.432 and a relative viability ([4]; first compound 8 µM) of 0.361.
In the case of NCI-H2347, the relative viability ([1]; first compound 0.08 µM) is reported as 0.444, the relative viability ([1]; first compound 0.253 µM) is reported as 0.525 and the relative viability ([1]; first compound 0.8 µM) is reported as 0.407. It also gave a relative viability ([1]; first compound 2.53 µM) of 0.471, a relative viability ([1]; first compound 8 µM) of 0.703 and a relative viability ([2]; first compound 0.08 µM) of 0.301. It also gave a relative viability ([2]; first compound 0.253 µM) of 0.26, a relative viability ([2]; first compound 0.8 µM) of 0.278 and a relative viability ([2]; first compound 2.53 µM) of 0.252. It also gave a relative viability ([2]; first compound 8 µM) of 0.33, a relative viability ([3]; first compound 0.08 µM) of 0.436 and a relative viability ([3]; first compound 0.253 µM) of 0.46. The relative viability ([3]; first compound 0.8 µM) was 0.368, the relative viability ([3]; first compound 2.53 µM) was 0.454 and the relative viability ([3]; first compound 8 µM) was 0.467. It also gave a relative viability ([4]; first compound 0.08 µM) of 0.734, a relative viability ([4]; first compound 0.253 µM) of 0.727 and a relative viability ([4]; first compound 0.8 µM) of 0.73. It also gave a relative viability ([4]; first compound 2.53 µM) of 0.703 and a relative viability ([4]; first compound 8 µM) of 0.58.
